In US20200338082A1, “FORMULATIONS, SYSTEMS, AND METHODS FOR THERAPEUTIC TREATMENT” (priority 2017, published 2020):
Structures can show the parent of a compound that is named as a salt.

Assay: Solubility of chemotherapeutic agents in solubilizing excipients and excipient blends
Format: physicochemical
Details: for solubility in organic blends tested: all organic blends: PEG400/Tween, Cremophor or Solutol/PEG400, Cremophor or Solutol/DMA or ethanol/PEG400; for solubility in DMA: compound pre-dissolved in dimethylacetamide (DMA)
Procedure: Eleven compounds and seven solubilizing excipients were obtained from commercial sources (see Table 1). […] The excipients listed comprise all of the organic solubilizers currently approved by the FDA for intravenous use in human patients.
Concentration targets were calculated based on providing the same amount of drug used clinically over the time period typically allotted for each compound (see Table 2 for target concentrations). Each solubilizing mixture was started at the target concentration, and if ineffective, diluted 2-fold successively until solubilization was achieved (sometimes with the help of gentle heating, mixing, or sonication), or until the solution was tested at 1:16 the target concentration, in which case further testing was halted (this concentration is approximately what would be required to hit a target dose with a daily cartridge exchange in a delivery device).
Three primary formulation combinations were tested in this example: • Solvent and co-solvent systems (PEG400 and Tween® 20 or Tween® 80) • Surfactant and co-solvent systems (Cremophor® or Solutol® and PEG400) • Surfactant and solvent/co-solvent systems (Cremophor® or Solutol® and DMA or ethanol and PEG400) For the first two combinations, mixtures were made upfront and solubility of each compound tested within. For the third, the compound was pre-dissolved in either DMA or ethanol and the remaining components then added as a mixture.

Row | Structure (SMILES) | solubility in organic blends tested | solubility in DMA | further results
1 | CCc1c2c(nc3ccc(OC(=O)N4CCC(N5CCCCC5)CC4)cc13)-c1cc3c(c(=O)n1C2)COC(=O)[C@]3(O)CC [irinotecan] | insoluble in all of the organic blends tested | – | –
2 | CN(Cc1cnc2nc(N)nc(N)c2n1)c1ccc(C(=O)N[C@@H](CCC(=O)O)C(=O)O)cc1 [methotrexate] | – | sufficient to solubilize | –
3 | CC(=O)O[C@H]1C(=O)[C@@]2(C)[C@H]([C@H](OC(=O)c3ccccc3)[C@]3(O)C[C@H](OC(=O)[C@H](O)[C@@H](NC(=O)c4ccccc4)c4ccccc4)C(C)=C1C3(C)C)[C@]1(OC(C)=O)CO[C@@H]1C[C@@H]2O [paclitaxel] | – | sufficient to solubilize | –
4 | Nc1ccn([C@@H]2O[C@H](CO)[C@@H](O)C2(F)F)c(=O)n1 [gemcitabine hydrochloride] | insoluble in all of the organic blends tested | – | –
5 | Nc1ccn([C@@H]2O[C@H](CO)[C@@H](O)C2(F)F)c(=O)n1 [gemcitabine] | – | – | solubility of free base instead of the salt (free base versus hydrochloride salt): increased solubility
6 | CC(=O)O[C@@]12CO[C@@H]1C[C@H](O)[C@@]1(C)C(=O)[C@H](O)C3=C(C)[C@@H](OC(=O)[C@H](O)[C@@H](NC(=O)OC(C)(C)C)c4ccccc4)C[C@@](O)([C@@H](OC(=O)c4ccccc4)[C@H]21)C3(C)C [docetaxel] | – | sufficient to solubilize | –
7 | COc1cc([C@@H]2c3cc4c(cc3[C@@H](O[C@@H]3O[C@@H]5CO[C@@H](C)O[C@H]5[C@H](O)[C@H]3O)[C@H]3COC(=O)[C@H]23)OCO4)cc(OC)c1O [etoposide] | – | sufficient to solubilize | –
8 | N.N.O=C([O-])C1(C(=O)[O-])CCC1.[Pt+2] [carboplatin] | insoluble in all of the organic blends tested | – | –
9 | O=c1[nH]cc(F)c(=O)[nH]1 [5-FU, fluorouracil] | insoluble in all of the organic blends tested | – | –
10 | CC[C@]1(O)C[C@@H]2CN(CCc3c([nH]c4ccccc34)[C@@](C(=O)OC)(c3cc4c(cc3OC)N(C)[C@H]3[C@@](O)(C(=O)OC)[C@H](OC(C)=O)[C@]5(CC)C=CCN6CC[C@]43[C@@H]65)C2)C1 [vinblastine] | – | sufficient to solubilize | –
